Reference: publication PMC9725750, “The clinical pharmacology of tafenoquine in the radical cure of Plasmodium vivax malaria: An individual patient data meta-analysis” (eLife, 2022)

Columns and labels:
[1] = system: blood MetHb; assay: Blood methaemoglobin (MetHb) concentration on day 7 by pulse CO-oximeter; type: in vivo, human
Excerpt: All patients in the phase 1 trial and the three efficacy trials had frequent blood MetHb measurements taken using non-invasive signal extraction pulse CO-oximeter handheld machines. For the three efficacy trials, we excluded measurements taken at or after recurrence of vivax malaria. Because erroneous readings from the handheld oximeters can occur, we inspected visually the longitudinal MetHb curves for each patient. […] All patients from this site were excluded from the MetHb analysis ( n =91), resulting in a total of 9632 MetHb measurements across 746 P. vivax infected patients and 72 healthy volunteers.

[2] = no reference given; cited from earlier work
[3] = system: Plasmodium vivax; assay: Radical cure efficacy: any P. vivax recurrence within 4 months in patients, pooled DETECTIVE part 1/2 and GATHER (logistic regression and Emax models); type: in vivo, human
Excerpt: The primary endpoint for the main efficacy analyses was any P. vivax recurrence within 4 months. We chose the binary endpoint of any recurrence rather than the time to first recurrence because tafenoquine has both asexual stage antimalarial activity ([Fukuda et al., 2017]) and hypnozoiticidal activity. […] The choice of a particular cut-off for follow-up is thus a trade-off between sensitivity and specificity. Longer follow-up will increase the sensitivity of the endpoint (include more relapses) but decrease specificity (include more reinfections).
For all predictors we fitted Bayesian mixed effects logistic regression models (random intercepts for study and study site), with adjustment for day 0 parasitaemia (log transformed). Logistic regression allows inference of the odds-ratio for recurrence for the predictive variable of interest, assuming a linear relationship between the predictive variable and log-odds for recurrence.
For the mg/kg dose (the primary predictor of interest), the dose-response relationship was then assessed under a Bayesian Emax model, where the dose-dependent logit probability of recurrence is defined as: Emax(d,x)=α+βx+δd^k/d^k+γ^k,
The Emax model was also fitted with random intercepts for study and study site.
To determine the main predictors of recurrence, we fitted a multivariable penalised Bayesian logistic regression model. This included the following variables as predictors: the tafenoquine mg/kg dose; the plasma tafenoquine AUC[0,∞); the plasma tafenoquine Cmax; the day 7 MetHb concentration (%); the terminal elimination half-life t1/2; and the baseline parasite density. The model included random intercept terms for each study and study site. […] To avoid convergence issues resulting from the co-linearity of the predictors, the prior on all non-hierarchical coefficients was set to a Normal(0,0.5). This prior effectively shrinks the regression coefficients towards zero. It can be interpreted as follows: plausible odds-ratios for recurrence for one standard deviation change for each of the fixed effect predictors lie approximately between 0.38 and 2.7).
In a priori sensitivity analyses, all recurrences up until 6 months were included as both binary and time to event outcomes. The time to first recurrence was defined as a P. vivax episode between day 7 and day 180 with right censoring at the last recorded visit. We also re-ran the same models in patients who received a 300 mg single dose of tafenoquine only (i.e. the current recommended treatment).

## CCCCN(CCCC)CC(O)c1cc(Cl)cc2c1-c1ccc(Cl)cc1/C2=C/c1ccc(Cl)cc1 (stereo not drawn) [lumefantrine]
[1]; healthy volunteers randomised to tafenoquine + AL, 95% CI 3 to 62%
  reduction in day 7 methaemoglobin per ten-fold increase in day 7 plasma lumefantrine concentration: 40%

## Clc1ccc2c(N3CCN(CCCN4CCN(c5ccnc6cc(Cl)ccc56)CC4)CC3)ccnc2c1 [piperaquine]
[1]; healthy volunteers, tafenoquine + DHA-PQP, no clear association, 95% CI –27 to 72%
  association of day 7 piperaquine concentration with day 7 MetHb (reduction): 40%

## COc1cc(NC(C)CCCN)c2ncccc2c1 (stereo not drawn) [primaquine]
[2]
  terminal elimination half-life: 5 h
[3]; 3.5 mg/kg primaquine vs 5 mg/kg tafenoquine
  posterior probability that the recurrence was more likely following primaquine: 0.73
[3]; PQ low-dose 15 mg base daily for 14 days + chloroquine, n=257
  Recurrence at 4 months: 57 (22.2) total number (%)
[3]; logistic model estimate, following 3.5 mg/kg primaquine, 95% CI 0.10–0.26
  mean probability of recurrence at 4 months: 0.17
